The values that follow come from ChEMBL document CHEMBL5352492, “Application of deep generative model for design of Pyrrolo[2,3-d] pyrimidine derivatives as new selective TANK binding kinase 1 (TBK1) inhibitors” (Eur J Med Chem, 2023).

Active and inactive are the calls of the source. The rule behind the calls is not given here.

Assay [1] has as its target T1, Serine/threonine-protein kinase TBK1 (Homo sapiens) (UniProt Q9UHD2).
T1 sequence (whole entry): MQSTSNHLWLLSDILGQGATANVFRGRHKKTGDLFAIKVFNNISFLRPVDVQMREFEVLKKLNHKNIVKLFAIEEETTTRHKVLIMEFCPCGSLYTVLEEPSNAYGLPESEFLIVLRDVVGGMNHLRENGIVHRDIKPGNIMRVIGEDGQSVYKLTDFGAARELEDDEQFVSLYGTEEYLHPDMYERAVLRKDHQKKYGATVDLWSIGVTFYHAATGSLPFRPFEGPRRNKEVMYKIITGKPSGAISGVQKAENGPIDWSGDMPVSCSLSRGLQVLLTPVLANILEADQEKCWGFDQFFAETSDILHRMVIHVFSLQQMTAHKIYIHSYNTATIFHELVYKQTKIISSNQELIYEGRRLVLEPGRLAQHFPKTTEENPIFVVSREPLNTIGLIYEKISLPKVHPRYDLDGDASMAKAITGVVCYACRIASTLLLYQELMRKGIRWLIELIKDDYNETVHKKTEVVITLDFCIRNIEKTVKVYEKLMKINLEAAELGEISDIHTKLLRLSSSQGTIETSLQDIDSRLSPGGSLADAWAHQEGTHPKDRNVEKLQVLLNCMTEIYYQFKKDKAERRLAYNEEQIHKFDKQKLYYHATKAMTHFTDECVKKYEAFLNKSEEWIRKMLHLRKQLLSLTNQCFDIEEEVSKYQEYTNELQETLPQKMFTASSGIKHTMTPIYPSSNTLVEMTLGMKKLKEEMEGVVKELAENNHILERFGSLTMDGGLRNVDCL
The assay can be described thus: Inhibition of TBK1 (unknown origin) incubated at 1000 nM for 1 hr in presence of ATP by FRET based Z'-Lyte assay relative to control.

In assay [2] the target is T1, Serine/threonine-protein kinase TBK1 (Homo sapiens). Kind of assay: Inhibition of TBK1 (unknown origin) incubated at 100 nM for 1 hr in presence of ATP by FRET based Z'-Lyte assay relative to control.
Assay [3] has the same target. The assay can be described thus: Inhibition of TBK1 (unknown origin) incubated at 10 nM for 1 hr in presence of ATP by FRET based Z'-Lyte assay relative to control.
For assay [4], the target named is T2, Serine/threonine-protein kinase TBK1 (Homo sapiens, UniProt Q9UHD2).
T2 sequence (Q9UHD2 whole entry): T1 sequence (whole entry)
Kind of assay: Inhibition of TBK1 (unknown origin) incubated for 1 hr in presence of ATP by FRET based Z'-Lyte assay.

The subject of assay [5] is RAW264.7. Kind of assay: Inhibition of LPS-induced cxcl10 in mouse RAW264.7 cells treated at 1 uM for 2 hrs RTq-PCR analysis. In kind it is functional, cell-based.
The subject of assay [6] is THP1-Blue ISG. The assay can be described thus: Inhibition of LPS-induced ifn-beta in human THP1-Blue ISG cells treated at 1 uM for 2 hrs RTq-PCR analysis. In kind it is functional, cell-based.
For assay [7], the system named is RAW264.7. Kind of assay: Inhibition of LPS-induced ifn-beta in mouse RAW264.7 cells treated at 1 uM for 2 hrs RTq-PCR analysis. In kind it is functional, cell-based.
In assay [8] the test system is THP1-Blue ISG. The assay can be described thus: Inhibition of LPS-induced cxcl10 in human THP1-Blue ISG cells treated at 1 uM for 2 hrs RTq-PCR analysis. In kind it is functional, cell-based.

As to `O=C(Nc1cccc(Cn2ccc3cnc(Nc4cccc(CN5CCOCC5)c4)nc32)c1)C1CCC1`, the inhibition in assay [1], in assay [2] and in assay [3] was below 0% in each case.

In the case of `O=C(C1CCC1)N1CCC(n2ccc3cnc(Nc4cccc(CN5CCOCC5)c4)nc32)CC1`, the inhibition in assay [1], in assay [2] and in assay [3] was below 0% throughout.

With `N#Cc1cn(CCCNC(=O)C2CCC2)c2nc(Nc3cccc(CN4CCOCC4)c3)ncc12`, the values for the inhibition in assay [1], in assay [2] and in assay [3] were 26.4%, below 0% and below 0%, respectively.

Consider `O=C(NCCCn1cc(Cl)c2cnc(Nc3cccc(CN4CCOCC4)c3)nc21)C1CCC1`, for which the inhibition (in general, the drop in the measured response relative to a control, in per cent) in assay [1] came to 91%; in assay [2] it was 55.8%; in assay [3] it was 9.6%.

Regarding `O=C(NCc1cccc(-n2ccc3cnc(Nc4cccc(CN5CCOCC5)c4)nc32)c1)C1CCC1`, the inhibition in assay [1] is 72.8%; in assay [2], 15.7%; in assay [3], below 0%.

Regarding `O=C(NCCCn1ccc2cnc(Nc3cccc(CN4CCOCC4)c3)nc21)C1CCC1`, the inhibition in assay [1] stood at 92.1%; in assay [2], 69.7%; in assay [3], 23.3%. In addition, in assay [4], the IC50 (usually the concentration at which inhibition is half-maximal) came out at 66.7 nM.

For the compound `O=C(NCCCn1cnc2cnc(Nc3cccc(CN4CCOCC4)c3)nc21)C1CCC1`, the figures for the inhibition in assay [1], in assay [2] and in assay [3] were 25.5%, below 0% and below 0%, respectively.

As for `O=C(NCCCNc1nc(Nc2cccc(CN3CCOCC3)c2)ncc1C1CC1)C1CCC1`, the inhibition result in the assay with RAW264.7 [5], with THP1-Blue ISG [6], in the assay with RAW264.7 [7] and with THP1-Blue ISG [8] was “Active” throughout.

Take `O=C(NCCCn1ncc2cnc(Nc3cccc(CN4CCOCC4)c3)nc21)C1CCC1`: the inhibition was 29% in assay [1], below 0% in assay [2] and below 0% in assay [3].

Turning to `O=C(Nc1ccc(-n2ccc3cnc(Nc4cccc(CN5CCOCC5)c4)nc32)nc1)C1CCC1`, the values for the inhibition in assay [1], in assay [2] and in assay [3] were 1.8%, below 0% and below 0%, respectively.

Turning to `Cc1cn(CCCNC(=O)C2CCC2)c2nc(Nc3cccc(CN4CCOCC4)c3)ncc12`, the inhibition in assay [1] is 78.7%; in assay [2], 22.8%; in assay [3], below 0%.

Consider `O=C(NCCCn1cc(C2CC2)c2cnc(Nc3cccc(CN4CCOCC4)c3)nc21)C1CCC1`, for which the inhibition in assay [1], in assay [2] and in assay [3] was below 0% each time.

Take `CN1CCN(Cc2cccc(Nc3ncc4ccn(CCCNC(=O)C5CCC5)c4n3)c2)CC1`: the inhibition in assay [1] was 72.6%; in assay [2], 44.5%; in assay [3], -3.2%. Besides, in assay [4], the IC50 came out at 53.6 nM.

Consider `O=C(NCCCn1cc(Br)c2cnc(Nc3cccc(CN4CCOCC4)c3)nc21)C1CCC1`, for which the inhibition in assay [1] turned out to be 84.4%; in assay [2], 37.1%; in assay [3], 1.33%.

As for `O=C(NCCCn1ccc2cnc(Nc3cccc(CN4CCN(C5COC5)CC4)c3)nc21)C1CCC1`, the values for the inhibition in assay [1], in assay [2] and in assay [3] were 92.3%, 64% and 14.7%, respectively. For the same compound, in assay [4], the IC50 came to 50 nM.

For the compound `O=C(NCCCN1C(=O)Cc2cnc(Nc3cccc(CN4CCOCC4)c3)nc21)C1CCC1`, the figures for the inhibition in assay [1], in assay [2] and in assay [3] were 0.6%, below 0% and below 0%, respectively.

On to `COCCN(C)Cc1cccc(Nc2ncc3ccn(CCCNC(=O)C4CCC4)c3n2)c1`, for which the values for the inhibition in assay [1], in assay [2] and in assay [3] were 91.8%, 68.9% and 23%, respectively. In assay [4], the IC50 turned out to be 35.7 nM.

Regarding `O=C(C1CCC1)N1CCC(n2ccc3cnc(Nc4cccc(CN5CCOCC5)c4)nc32)C1` (configuration not stated), the inhibition in assay [1], in assay [2] and in assay [3] was below 0% throughout.

In the case of `Cc1cc(=O)n(CCCNC(=O)C2CCC2)c2nc(Nc3cccc(CN4CCOCC4)c3)ncc12`, the inhibition in assay [1], in assay [2] and in assay [3] was below 0% in each case.
